Assay: Precipitation after preparation of lenalidomide compositions without glycol or polyol
Type: physicochemical
Settings: lenalidomide dissolved in an aqueous buffer at pH between 1.0 and 3.5; a few minutes
Method: A composition was prepared according to example 23 of WO 1998/03502. The solution contained 5.0 g lenalidomide, 22.5 g sodium chloride, 300.0 g phosphate buffer with pH 7.4 and demineralized water. The pH of the final composition was 7.4.
Similar results (i.e. precipitation) were obtained a few minutes after lenalidomide was dissolved in an aqueous buffer at pH between 1.0 and 3.5.
Likewise, attempts to prepare an oral solution by combining lenalidomide with any one of arginine, leucine, povidone K25, sodium lauryl sulfate, hydroxypropyl methylcellulose, poloxamer 20, in an aqueous buffer at pH 2.0 or pH 2.5 led to the formation of precipitate within minutes of the preparation of the compositions.

For Nc1cccc2c1CN(C1CCC(=O)NC1=O)C2=O (racemic) [Lenalidomide, 1-oxo-(2,6-dioxopiperidin-3-yl)-4-aminoisoindoline], which precipitation after dissolution is on record?
The precipitation after dissolution was “precipitation”.

— patent US20250170115A1, “LENALIDOMIDE ORAL SOLUTION” (A FINE HOUSE S.A., priority 2021, published 2025)
